Blank lines part the entries; values can stand above or below the compound they belong to.
How the values were obtained:
[1] = test system: soluble guanylate cyclase; test: Stimulation of soluble guanylate cyclase in primary endothelial cells (intracellular cGMP); format: cell-based; settings: pig aortic primary endothelial cells, 10 min
Experimental: Stimulation of Soluble Guanylate Cyclase in Primary Endothelial Cells
Primary endothelial cells were isolated from pig aortas by treatment with collagenase soln. The cells were then cultured in culture medium at 37 °C./5% CO2 until confluence was reached. For the investigations, the cells were passaged, inoculated into 24-well cell culture plates and subcultured until reaching confluence (˜2×10^5 cells/well). For the stimulation of endothelial guanylate cyclase, the culture medium was aspirated and the cells were washed once with Ringer solution. After removing the Ringer solution, the cells were incubated for 10 minutes, at 37° C./5% CO2 in stimulation buffer. […] After a further 10 minutes the buffer solution was aspirated and cold buffer at 4° C. was added to the cells. The cells were then lysed at −20° C. for 16 hours. The supernatants containing the intracellular cGMP were then removed and the cGMP concentration was determined by means of the cGMP-SPA system (Amersham Buchler, Brunswick).

anaesthetized rats = test: Blood pressure measurements in anaesthetized rats; format: in vivo; settings: anaesthetized male Wistar rats
Experimental: Blood Pressure Measurements in Anaesthetized Rats
Male Wistar rats having a bodyweight of 300-350 g are anaesthetized with Thiopental (100 mg/kg i.p.). After tracheotomy, a catheter is inserted into the femoral artery for blood pressure measurement. The substances to be tested are administered orally in Transcutol, Cremophor EL, H2O (10%/20%/70%) in a volume of 1 ml/kg.

awake rabbits = test: Erection-promoting action of guanylate cyclase stimulators in awake rabbits; format: in vivo, chinchilla rabbits; settings: for Erection-promoting effect, +SNP i.v.: with sodium nitroprusside 0.2 mg/kg i.v. simultaneously; for Erection-promoting effect, +SNP po: sodium nitroprusside 0.2 mg/kg i.v. 30 min later
Text: For a complete and lasting erection to occur, the cavernous arteries and the entire cavernous body architecture, which is formed by a network of smooth muscle cells and collagen connective tissue, has to be at maximum dilation so that the corpus cavernosum can fill completely with blood (Anderson K.-E. and Wagner G., “Physiology of Penile Erection.”. Physiological Reviews 75, 191-236 (1995); Meinhardt W. Kropmann R F, Vermeig P, Lycclama a Nigelholt and Zwartendijk J. “The Influence of Medication on Erectile dysfunction.” Int. J. of Impotence Res. 9, 17-26 (1997). Relaxation of smooth muscles is mediated by NO which, in the case of sexual stimulation, is released by non-adrenergic, non-cholinergic nerve fibres in the endothelial cells of the blood vessels of the corpus cavernosum. NO activates guanylate cyclase, and the resulting increase in cGMP leads to dilation of the smooth muscles of the corpus cavernosum and consequently to an erection. To test the efficacy of the substances according to the invention, awake rabbits were used. The species rabbit was chosen since neurophysiology, haemodynamic and the control of contraction and relaxation of the smooth muscles of the corpus cavernosum of rabbit and man are quite similar (Meyer M F, Taher H., Krah H., Staubesand J., Becker A J, Kircher M, Mayer B., Jonas U., Forsmann W G., Stief Ch.G. “Intracavenous Application of SIN-1 in Rabbit and Man: Functional and Toxcological Results.” Annals Urol. 27, 179-182 (1993); Taub H C, Lerner S E, Melman A, Christ G J “Relationship between contraction and relaxation in human and rabbit corpus cavernosum.” Urology 42, 698-671, (1993).
Adult male chinchilla rabbits having a weight of 3-5 kg are, after delivery, adapted for several days in isolation. They have free access to water and can feed for two hours per day. The animals are kept in a 10/14 hour day/night rhythm (light switched on from 8.00 hours onwards). The room temperature is 22-24° C.
The animals are weighed directly before the start of the experiment. For intravenous administration, the substances according to the invention were dissolved in a mixture of Transcutol (GATTEFOSSE GmbH ) diluted with 20% Cremophor (BASF) and water in a ratio of 3/7. Sodium nitroprusside was dissolved in 0.9% NaCl. The substances were injected at the dosages stated in the table in a volume of 0.5 ml/kg into the auricular vein. For oral administration, the test substances were dissolved in a mixture of glycerol: water: polyethylene glycol 6:10:9.69 and administered at the dosages stated in the table in a volume of 1 ml/kg using the stomach tube.
The effect of guanylate cyclase stimulators is increased by NO donors.
The sodium nitroprusside was injected into the auricular vein at a dosage of 0.2 mg/kg simultaneously with the substance according to the invention. If the substance according to the invention was administered orally, the sodium nitroprusside was injected into the auricular vein of these animals 30 min after the oral administration. Corresponding controls were carried out using the solvent and using sodium nitroprusside on its own.
At rest, the penis of the rabbit is not visible in the pubic region and is covered completely by the sheath. The erection is assessed by measuring the length of the protruding penis with a calliper square. Measurements are carried out 5, 10, 15, 30, 45, 60, 120 and 180 min. after the administration of the substance. The effect is calculated as the product of the length of the penis which is not covered by fur in [mm] and the time for which the erection persists in [min].
The substances were administered in the dosages stated. The sodium nitroprusside was in each case administered i.v., at 0.2 mg/kg. If the substance according to the invention was administered i.v., the sodium nitroprusside was administered simultaneously, if the substance according to the invention was administered orally, it was administered 30 min later. […]

rabbit aortal rings = test: Vasorelaxant action in vitro, aortal rings contracted with phenylephrine; settings: Oryctolagus cuniculus; rabbit aorta rings, phenylephrine contraction; read-out: IC50 (concentration reducing height of phenylephrine contraction by 50%)
Experimental: Vasorelaxant Action in vitro
Rabbits are anaesthetized by a blow to the neck and exanguinated. The aorta is removed, freed from adhering tissue, divided into 1.5 mm wide rings and individually transferred under a pretension into 5 ml organ baths containing a warm, carbogen-aerated Krebs-Henseleit solution at 37° C. of the following composition (mM): NaCl: 119; KCl: 4.8; CaCl2×2 H2O: 1; MgSO4×7 H2O; 1.4; KH2PO4: 1.2; NaHCO3: 25; glucose: 10. The contractility is detected using Statham UC2 cells, amplified and digitalized by means of A/D converters (DAS-1802 HC, Keithley Instruments Munich), and recorded in parallel on linear recorders. To produce a contraction, phenylephrin is added to the bath cumulatively in increasing concentration. After several control cycles, the substance to be investigated is investigated in each further passage in increasing dosage in each case, and the height of the contraction is compared with the height of the contraction achieved in the last preliminary passage. From this, the concentration which is necessary in order to reduce the height of the control value by 50% (IC50) is calculated. The standard administration volume is 5 μl, and the proportion of DMSO in the bath solution corresponds to 0.1%.

[2] = test system: human platelets stimulated with collagen; test: Inhibition of platelet aggregation in vitro (collagen-induced); format: cell-based; settings: 10 min, washed human platelets, 10 min incubation at 37° C.
Experimental: To determine the cardiovascular action, the following investigations were carried out: In in vitro investigations on the isolated enzyme and on cells of vascular origin, the effect on guanylate cyclase-dependent cGMP formation was tested with and without NO donor. The anti-aggregatory properties were shown on human platelets stimulated with collagen. The vasorelaxant action was determined in rabbit aortal rings preconcentrated with phenylephrine. The hypotensive action was investigated in anaesthetized and awake rats.
To determine the platelet-aggregation, blood from healthy volunteers of both sexes was used. As an anticoagulant, 9 parts of blood were admixed to one part of 3.8% strength sodium citrate solution. The blood was centrifuged at 900 rpm for 20 min. The pH of the platelet-rich plasma obtained was adjusted to pH 6.5 using ACD solution (sodium citrate/citric acid/glucose). The platelets were subsequently centrifuged off and resuspended in buffer and once more centrifuged off. The platelet pellet was suspended in buffer and mixed with an additional 2 mmol/l of CaCl2.
To measure the aggregation, aliquots of the platelet suspension were incubated with the substance to tested at 37° C. for 10 min.

melting point: 213 °C
Compound: Nc1nc(-c2nn(Cc3ccccc3F)c3ncccc23)ncc1C1CCCCC1 [Example 4, 3(4-Amino-5-cyclohexylpyrimidin-2-yl)-1-(2-fluorobenzyl)-1H-pyrazolo[3,4-b]pyridine]

melting point: 214 °C
Compound: Nc1nc(-c2nn(Cc3ccccc3F)c3ncccc23)ncc1C1CCC1 [Example 2, 3-(4-Amino-5-cyclobutylpyrimidin-2-yl)-1-(2-fluorobenzyl)-1H-pyrazolo[3,4-b]pyridine]

IC50 (rabbit aortal rings): 200 nM | IC50 [2]: 3 nM
Compound: Nc1nc(-c2nn(Cc3ccccc3F)c3ncccc23)ncc1C1CC1 [Example 1, 3-(4-Amino-5-cyclopropylpyrimidin-2-yl)-1-(2-fluorobenzyl)-1H-pyrazolo[3,4-b]pyridine]
cGMP ([1]; concentration 0.1 μM): 2.2 pmol/well | cGMP ([1]; concentration 0.3 μM): 4.0 pmol/well | cGMP ([1]; concentration 1.0 μM): 6.9 pmol/well | cGMP ([1]; concentration 3.0 μM): 8.5 pmol/well | cGMP ([1]; concentration 10 μM): 14.6 pmol/well | Max. reduction in blood pressure (anaesthetized rats; 1 mg/kg p.o.): 23 mm Hg | Time (of max. reduction in blood pressure) (anaesthetized rats; 1 mg/kg p.o.): 20 min | Max. reduction in blood pressure (anaesthetized rats; 3 mg/kg p.o.): 37 mm Hg | Time (of max. reduction in blood pressure) (anaesthetized rats; 3 mg/kg p.o.): 40 min | Erection-promoting effect, +SNP i.v. (awake rabbits; 0.3 mg/kg i.v.): 140 [mm] × [min] | Erection-promoting effect, +SNP i.v. (awake rabbits; 1 mg/kg i.v.): 369 [mm] × [min] | Erection-promoting effect, +SNP po (awake rabbits; 1 mg/kg po): 184 [mm] × [min] | Erection-promoting effect, +SNP po (awake rabbits; 3 mg/kg po): 233 [mm] × [min] | Erection-promoting effect, +SNP po (awake rabbits; 10 mg/kg po): 375 [mm] × [min] | Erection-promoting effect, +SNP po (awake rabbits; 30 mg/kg po): 804 [mm] × [min] | Erection-promoting effect, −SNP po (awake rabbits; 30 mg/kg po, without sodium nitroprusside): 418 [mm] × [min]

melting point: 208 °C
Compound: Nc1nc(-c2nn(Cc3ccccc3F)c3ncccc23)ncc1C1CCCC1 [Example 3, 3-(4-Amino-5-cyclopentylpyrimidin-2-yl)-1-(2-fluorobenzyl)-1H-pyrazolo[3,4-b]pyridine]
